Results as given in ChEMBL document CHEMBL1201862, “PubChem BioAssay data set” (2004).
The source made the active and inactive calls.

How the values were obtained:
Beta-galactosidase = Beta-galactosidase (Escherichia coli, UniProt Q8VNN2); assay: Dose response counterscreen for EBI2 assay utilizing the enzyme, b-galactosidase.; assay type: functional
[1] = target: T1, Adenosylmethionine-8-amino-7-oxononanoate aminotransferase (Mycobacterium tuberculosis, UniProt P9WQ81); assay: Mycobacterium tuberculosis BioA enzyme inhibitor Measured in Biochemical System Using Plate Reader - 2163-02_Inhibitor_Dose_CherryPick_Activity.; assay type: functional, Mycobacterium tuberculosis UT205
T1 sequence (P9WQ81 whole entry): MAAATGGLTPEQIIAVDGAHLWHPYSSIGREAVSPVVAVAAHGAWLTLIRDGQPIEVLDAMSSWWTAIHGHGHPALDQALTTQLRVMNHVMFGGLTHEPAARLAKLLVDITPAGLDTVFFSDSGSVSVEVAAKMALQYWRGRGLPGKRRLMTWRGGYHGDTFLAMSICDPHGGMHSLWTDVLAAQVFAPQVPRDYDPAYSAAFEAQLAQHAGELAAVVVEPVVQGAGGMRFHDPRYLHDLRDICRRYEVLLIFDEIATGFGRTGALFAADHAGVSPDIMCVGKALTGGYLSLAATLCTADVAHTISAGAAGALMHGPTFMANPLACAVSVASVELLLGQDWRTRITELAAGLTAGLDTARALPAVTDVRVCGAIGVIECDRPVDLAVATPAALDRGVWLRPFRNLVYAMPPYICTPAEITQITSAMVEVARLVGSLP

[2] = target: Peroxisome proliferator-activated receptor gamma/Nuclear receptor coactivator 2 (Homo sapiens, UniProt P37231); assay type: functional;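 also: agonist potency for raising coactivator recruitment to the receptor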
[3] = target: Peroxisome proliferator-activated receptor gamma/Nuclear receptor coactivator 1 (Homo sapiens, UniProt P37231); assay type: functional;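 also: agonist potency as compounds enhance coactivator SRC-1 recruitment to PPARgamma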
[4] = target: Peroxisome proliferator-activated receptor gamma/Nuclear receptor coactivator 3 (Homo sapiens, UniProt P37231); assay type: functional;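 also: agonist potency for raising coactivator recruitment to the receptor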
Large T antigen = Large T antigen (Simian virus 40, UniProt P03070); assay type: functional, Betapolyomavirus macacae;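 also: Confirmatory-stage PubChem screen for compounds that inhibit SV40 T antigen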
[5] = target: T2, Rac GTPase-activating protein 1 (Homo sapiens, UniProt Q9H0H5); assay: MgcRacGAP GTPase-activating activity inhibitors, confirmation, biochemical, ADP Hunter fluorescence, primary and confirmatory (AID 624330); assay type: functional
T2 sequence (Q9H0H5 whole entry): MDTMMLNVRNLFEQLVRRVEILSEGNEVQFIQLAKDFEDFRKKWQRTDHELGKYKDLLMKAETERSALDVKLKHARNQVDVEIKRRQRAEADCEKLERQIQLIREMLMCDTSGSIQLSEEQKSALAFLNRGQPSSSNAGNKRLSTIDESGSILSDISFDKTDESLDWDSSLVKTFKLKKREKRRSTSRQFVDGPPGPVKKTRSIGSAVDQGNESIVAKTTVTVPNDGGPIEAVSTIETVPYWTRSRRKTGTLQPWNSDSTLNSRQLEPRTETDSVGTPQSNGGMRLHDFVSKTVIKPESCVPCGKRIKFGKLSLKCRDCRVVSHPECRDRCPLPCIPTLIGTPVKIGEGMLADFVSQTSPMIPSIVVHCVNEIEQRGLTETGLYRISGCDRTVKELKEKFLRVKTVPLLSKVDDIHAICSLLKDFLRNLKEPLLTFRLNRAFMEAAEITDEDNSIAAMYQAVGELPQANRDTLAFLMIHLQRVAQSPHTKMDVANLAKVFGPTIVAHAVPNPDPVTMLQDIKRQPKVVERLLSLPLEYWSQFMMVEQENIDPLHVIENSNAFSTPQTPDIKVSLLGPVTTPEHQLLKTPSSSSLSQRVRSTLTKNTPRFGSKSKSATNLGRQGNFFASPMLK

Cytochrome P450 2C9 = Cytochrome P450 2C9 (Homo sapiens, UniProt P11712)
cells [6] = assay type: functional, cell-based
cells [7] = assay type: functional, cell-based; remark: listed apart in the source
Paired box protein Pax-8 = Paired box protein Pax-8 (Homo sapiens, UniProt Q06710); assay: inhibitors of PAX8-driven TPO luciferase reporter, dose response, RMG-I cells, cherry-pick (AID 687027); assay type: functional, cell-based;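 also: luciferase reporter driven by Pax8 target thyroperoxidase promoter measured by SteadyGlo luminescence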
[8] = A2780 ovarian cancer cell cytotoxicity, dose response, cytotoxicity control, plate reader, dry powder samples (AID 743046); assay type: functional, cell-based
[9] = NIH:OVCAR-3 ovarian cancer cell cytotoxicity, dose response, PAX8 inhibitor project, plate reader, dry powder samples (AID 743044); assay type: functional, cell-based
[10] = IGROV1 ovarian cancer cell cytotoxicity, dose response, PAX8 inhibitor project, plate reader, dry powder samples (AID 743043); assay type: functional, cell-based; settings: IGROV-1
[11] = cytotoxicity in OVCAR8 ovarian cancer cells, dose response, PAX8 project, cell-based, plate reader, dry powder samples (AID 743197); assay type: functional; settings: OVCAR-8
[12] = target: Induced myeloid leukemia cell differentiation protein Mcl-1 (Homo sapiens, UniProt Q07820); assay type: functional
[13] = target: T3, Carboxy-terminal domain RNA polymerase II polypeptide A small phosphatase 1 (Homo sapiens, UniProt Q9GZU7); assay: inhibitors of CTDSP1, concentration-response testing, biochemical assay, absorbance-based, actives from ultra-high-throughput screening (AID 540297); assay type: functional
T3 sequence (Q9GZU7 whole entry): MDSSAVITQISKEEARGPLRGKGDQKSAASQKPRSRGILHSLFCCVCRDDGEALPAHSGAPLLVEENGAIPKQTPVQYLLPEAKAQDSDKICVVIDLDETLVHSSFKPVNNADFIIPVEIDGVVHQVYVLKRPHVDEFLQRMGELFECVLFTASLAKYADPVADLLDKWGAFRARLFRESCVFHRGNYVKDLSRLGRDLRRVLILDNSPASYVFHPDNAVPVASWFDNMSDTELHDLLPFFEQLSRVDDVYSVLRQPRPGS

Beta-galactosidase, sequence (Q8VNN2 whole entry): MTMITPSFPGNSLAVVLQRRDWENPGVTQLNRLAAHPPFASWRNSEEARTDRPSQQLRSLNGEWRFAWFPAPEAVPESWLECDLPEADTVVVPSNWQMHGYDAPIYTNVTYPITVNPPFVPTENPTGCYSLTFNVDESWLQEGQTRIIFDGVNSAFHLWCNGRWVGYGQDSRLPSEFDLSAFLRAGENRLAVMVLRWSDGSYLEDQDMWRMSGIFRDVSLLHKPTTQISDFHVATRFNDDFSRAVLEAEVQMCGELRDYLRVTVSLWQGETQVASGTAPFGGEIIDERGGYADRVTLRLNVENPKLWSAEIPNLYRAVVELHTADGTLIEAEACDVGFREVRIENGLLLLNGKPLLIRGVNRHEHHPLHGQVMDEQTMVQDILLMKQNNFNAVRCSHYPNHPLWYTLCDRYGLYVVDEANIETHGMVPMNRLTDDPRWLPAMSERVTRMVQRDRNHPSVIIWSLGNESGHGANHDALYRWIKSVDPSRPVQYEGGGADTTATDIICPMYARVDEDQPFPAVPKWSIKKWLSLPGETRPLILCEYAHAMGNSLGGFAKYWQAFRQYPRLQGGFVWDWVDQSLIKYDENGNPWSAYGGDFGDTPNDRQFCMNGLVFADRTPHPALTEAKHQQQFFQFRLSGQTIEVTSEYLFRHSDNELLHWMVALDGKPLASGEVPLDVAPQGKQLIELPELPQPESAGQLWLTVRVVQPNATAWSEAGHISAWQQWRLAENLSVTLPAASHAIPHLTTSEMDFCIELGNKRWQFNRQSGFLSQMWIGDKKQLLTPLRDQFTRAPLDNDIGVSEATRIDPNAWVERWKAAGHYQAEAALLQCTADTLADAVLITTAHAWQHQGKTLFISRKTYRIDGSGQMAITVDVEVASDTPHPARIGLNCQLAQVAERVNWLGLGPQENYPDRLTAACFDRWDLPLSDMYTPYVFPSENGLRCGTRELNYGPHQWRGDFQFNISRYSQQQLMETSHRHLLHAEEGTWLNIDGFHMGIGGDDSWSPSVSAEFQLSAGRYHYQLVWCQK
Paired box protein Pax-8, sequence (Q06710 whole entry): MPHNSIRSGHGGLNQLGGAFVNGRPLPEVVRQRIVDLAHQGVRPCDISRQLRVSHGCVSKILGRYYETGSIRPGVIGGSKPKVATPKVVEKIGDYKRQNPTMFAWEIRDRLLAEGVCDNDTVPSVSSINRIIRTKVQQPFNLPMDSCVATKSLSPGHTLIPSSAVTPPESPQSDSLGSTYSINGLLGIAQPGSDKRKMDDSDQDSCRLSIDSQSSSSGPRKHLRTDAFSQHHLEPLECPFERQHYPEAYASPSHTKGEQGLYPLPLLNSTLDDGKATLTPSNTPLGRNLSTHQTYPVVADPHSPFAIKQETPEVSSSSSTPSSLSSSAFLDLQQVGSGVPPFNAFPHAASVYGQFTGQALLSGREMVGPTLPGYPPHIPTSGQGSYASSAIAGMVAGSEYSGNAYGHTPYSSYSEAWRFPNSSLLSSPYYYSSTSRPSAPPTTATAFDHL
Cytochrome P450 2C9, sequence (P11712 whole entry): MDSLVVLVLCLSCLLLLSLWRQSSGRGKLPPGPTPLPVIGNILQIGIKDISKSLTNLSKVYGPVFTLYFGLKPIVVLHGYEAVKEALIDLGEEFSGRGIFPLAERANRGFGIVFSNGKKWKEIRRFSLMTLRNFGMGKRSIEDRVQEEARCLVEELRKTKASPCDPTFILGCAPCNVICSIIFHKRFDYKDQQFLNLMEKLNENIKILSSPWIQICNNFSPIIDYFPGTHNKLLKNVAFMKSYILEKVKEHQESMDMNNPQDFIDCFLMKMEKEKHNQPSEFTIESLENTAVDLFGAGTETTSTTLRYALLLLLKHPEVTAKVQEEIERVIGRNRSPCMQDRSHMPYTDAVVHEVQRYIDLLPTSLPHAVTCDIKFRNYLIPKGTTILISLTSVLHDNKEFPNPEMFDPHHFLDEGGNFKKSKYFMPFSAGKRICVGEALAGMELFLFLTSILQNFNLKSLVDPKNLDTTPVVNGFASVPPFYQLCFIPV
Peroxisome proliferator-activated receptor gamma/Nuclear receptor coactivator 2, sequence (P37231 whole entry): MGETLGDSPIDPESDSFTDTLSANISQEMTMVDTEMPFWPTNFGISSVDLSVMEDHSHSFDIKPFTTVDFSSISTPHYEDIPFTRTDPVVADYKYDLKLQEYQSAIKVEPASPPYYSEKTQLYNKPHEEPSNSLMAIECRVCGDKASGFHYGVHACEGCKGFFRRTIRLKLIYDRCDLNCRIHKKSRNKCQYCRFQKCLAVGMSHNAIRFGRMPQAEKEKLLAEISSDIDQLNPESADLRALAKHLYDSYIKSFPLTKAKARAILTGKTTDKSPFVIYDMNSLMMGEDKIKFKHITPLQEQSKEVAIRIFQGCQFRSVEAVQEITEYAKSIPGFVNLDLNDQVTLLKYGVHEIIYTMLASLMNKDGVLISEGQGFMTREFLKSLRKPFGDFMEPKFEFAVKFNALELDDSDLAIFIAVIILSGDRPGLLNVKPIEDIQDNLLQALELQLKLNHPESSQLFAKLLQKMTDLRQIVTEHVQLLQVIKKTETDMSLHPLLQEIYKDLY
Peroxisome proliferator-activated receptor gamma/Nuclear receptor coactivator 2, sequence (Q15596 whole entry, further chain): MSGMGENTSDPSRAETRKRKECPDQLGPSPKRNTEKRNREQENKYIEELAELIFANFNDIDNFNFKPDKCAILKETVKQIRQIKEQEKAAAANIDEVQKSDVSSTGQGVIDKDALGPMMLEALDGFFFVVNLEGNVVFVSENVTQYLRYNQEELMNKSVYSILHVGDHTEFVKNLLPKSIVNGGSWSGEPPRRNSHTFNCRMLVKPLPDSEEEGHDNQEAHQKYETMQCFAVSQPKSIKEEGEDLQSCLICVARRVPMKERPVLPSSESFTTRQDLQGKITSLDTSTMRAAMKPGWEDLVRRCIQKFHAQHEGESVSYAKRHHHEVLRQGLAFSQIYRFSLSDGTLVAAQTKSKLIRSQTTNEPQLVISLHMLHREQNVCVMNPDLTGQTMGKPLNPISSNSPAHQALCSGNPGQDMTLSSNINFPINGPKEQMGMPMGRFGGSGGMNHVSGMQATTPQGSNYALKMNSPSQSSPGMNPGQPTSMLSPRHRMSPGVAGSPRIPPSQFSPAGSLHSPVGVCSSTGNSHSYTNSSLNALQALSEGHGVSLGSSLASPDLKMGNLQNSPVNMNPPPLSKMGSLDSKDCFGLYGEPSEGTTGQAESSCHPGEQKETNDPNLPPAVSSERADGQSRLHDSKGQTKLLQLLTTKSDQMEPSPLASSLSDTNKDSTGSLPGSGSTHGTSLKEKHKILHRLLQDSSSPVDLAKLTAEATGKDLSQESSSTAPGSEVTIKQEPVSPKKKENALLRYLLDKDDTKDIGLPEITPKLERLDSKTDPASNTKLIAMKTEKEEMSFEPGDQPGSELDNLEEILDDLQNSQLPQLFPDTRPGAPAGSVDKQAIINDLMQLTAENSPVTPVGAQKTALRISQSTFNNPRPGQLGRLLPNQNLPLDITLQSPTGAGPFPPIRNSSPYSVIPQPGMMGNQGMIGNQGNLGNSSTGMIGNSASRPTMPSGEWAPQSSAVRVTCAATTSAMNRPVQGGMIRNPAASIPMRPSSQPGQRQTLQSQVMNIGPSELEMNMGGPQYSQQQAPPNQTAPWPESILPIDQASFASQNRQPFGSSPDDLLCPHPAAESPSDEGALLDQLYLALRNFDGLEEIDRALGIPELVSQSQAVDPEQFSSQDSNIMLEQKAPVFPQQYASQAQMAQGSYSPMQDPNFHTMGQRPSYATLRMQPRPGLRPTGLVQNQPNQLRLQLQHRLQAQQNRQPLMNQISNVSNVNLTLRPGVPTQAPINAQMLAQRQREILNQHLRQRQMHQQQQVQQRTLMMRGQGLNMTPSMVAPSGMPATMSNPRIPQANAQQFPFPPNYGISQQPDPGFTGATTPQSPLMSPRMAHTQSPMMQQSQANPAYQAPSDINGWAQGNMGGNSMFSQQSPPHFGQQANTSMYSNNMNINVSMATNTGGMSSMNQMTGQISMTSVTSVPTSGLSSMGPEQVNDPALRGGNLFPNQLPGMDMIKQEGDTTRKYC
Induced myeloid leukemia cell differentiation protein Mcl-1, sequence (Q07820 whole entry, the tested form may be a part): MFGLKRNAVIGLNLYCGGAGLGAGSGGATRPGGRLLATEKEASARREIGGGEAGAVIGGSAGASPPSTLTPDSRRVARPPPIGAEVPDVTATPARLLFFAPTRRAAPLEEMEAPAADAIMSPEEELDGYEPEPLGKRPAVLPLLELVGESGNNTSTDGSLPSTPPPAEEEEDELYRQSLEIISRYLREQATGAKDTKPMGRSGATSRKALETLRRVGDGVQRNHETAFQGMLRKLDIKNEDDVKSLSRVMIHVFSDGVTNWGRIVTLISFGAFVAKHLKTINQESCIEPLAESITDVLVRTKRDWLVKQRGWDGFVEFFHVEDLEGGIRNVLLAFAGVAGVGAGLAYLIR
Large T antigen, sequence (P03070 whole entry): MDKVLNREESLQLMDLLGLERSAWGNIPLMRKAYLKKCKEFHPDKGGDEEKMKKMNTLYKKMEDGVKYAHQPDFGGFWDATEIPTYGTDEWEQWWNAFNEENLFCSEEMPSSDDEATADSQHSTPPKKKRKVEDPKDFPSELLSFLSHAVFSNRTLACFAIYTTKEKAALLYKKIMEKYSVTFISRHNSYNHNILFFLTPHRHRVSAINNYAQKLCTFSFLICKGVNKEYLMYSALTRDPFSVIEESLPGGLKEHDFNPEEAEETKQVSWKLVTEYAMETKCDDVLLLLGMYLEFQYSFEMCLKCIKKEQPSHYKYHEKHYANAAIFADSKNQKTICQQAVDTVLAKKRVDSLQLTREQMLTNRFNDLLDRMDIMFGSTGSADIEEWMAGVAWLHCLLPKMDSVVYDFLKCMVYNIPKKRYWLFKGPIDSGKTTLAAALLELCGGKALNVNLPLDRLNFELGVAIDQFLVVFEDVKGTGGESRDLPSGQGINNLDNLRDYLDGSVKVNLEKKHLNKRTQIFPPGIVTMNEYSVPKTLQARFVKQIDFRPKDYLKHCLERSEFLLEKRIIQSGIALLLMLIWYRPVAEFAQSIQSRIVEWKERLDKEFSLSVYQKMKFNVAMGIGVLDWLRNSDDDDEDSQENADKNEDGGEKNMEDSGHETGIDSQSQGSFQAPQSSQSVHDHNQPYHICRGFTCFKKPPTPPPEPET

With `COC(=O)c1ccc(/N=c2\sc(C(=O)OC)cc(=O)n2C)cc1` the IC50 (Beta-galactosidase) was > 80 µM (inactive).
In the case of `COC(=O)c1c(C(=O)OC)c(-c2cccc(F)c2)n2c1C[S+]([O-])C2` (stereo not given), the AC50 [1] was 0.659 µM (active).
With `O=C(/C=C/c1ccc(Cl)cc1)N1CCN(CCN2C(=O)c3cccc4cccc(c34)C2=O)CC1` the IC50 (Beta-galactosidase) was > 80 µM (inactive).
With `O=C(N/N=C/c1ccc(O)cc1)c1csc2ccccc12` the EC50 [2] was > 79.4 µM (not active), the EC50 [3] was > 79.4 µM (not active) and the EC50 [4] was > 79.4 µM (not active). For the same compound, the IC50 (Large T antigen) was 13.3 µM (active), the IC50 [5] was 42.3 µM (active) and the AC50 (Cytochrome P450 2C9) was “inconclusive”.
With `COc1ccc(-c2nc3ccc(Cl)cn3c2Cc2ccccc2)cc1OC` the AC50 [1] was 10.6 µM (active).
With `CCOC(=O)[C@]12CCC=C1N(CCC1=CCCCC1)C(=O)[C@H](CC(=O)NCCc1ccccc1OC)C2` the IC50 (cells [6]) was > 29.9 µM (inactive) and the EC50 (cells [7]) was > 29.9 µM (inactive).
In the case of `C[C@@H]1CCCCO[C@@H](CN(C)S(=O)(=O)c2ccc(Cl)cc2)[C@H](C)CN([C@H](C)CO)C(=O)c2cc(NS(=O)(=O)c3ccc(Cl)cc3)ccc2O1`, the AC50 (Paired box protein Pax-8) was 3.27 µM (active), the AC50 [8] was 55.8 µM (active) and the AC50 [9] was 17.7 µM (active). For the same compound, the AC50 [10] was 21.7 µM (active) and the AC50 [11] was 19.5 µM (active).
In the case of `C[C@@H]1CN([C@H](C)CO)C(=O)c2cc(NS(=O)(=O)c3cccs3)ccc2O[C@@H](C)CCCCO[C@@H]1CN(C)Cc1ccc(Cl)c(Cl)c1`, the AC50 (Paired box protein Pax-8) was 4.91 µM (active), the AC50 [8] was 27.8 µM (active) and the AC50 [9] was 16.9 µM (active). For the same compound, the AC50 [10] was 26.5 µM (active) and the AC50 [11] was 20.5 µM (active).
With `COc1ccc(/C=N/N=C/c2cnc(O)c(C#N)c2Nc2ccccc2)cc1` the IC50 (Beta-galactosidase) was > 80 µM (inactive).
For `NC(=S)n1[nH]c(-c2ccc([N+](=O)[O-])cc2)c(/N=N/c2ccccc2[N+](=O)[O-])c1=O`, the IC50 [12] was 23.2 µM (active) and the IC50 [13] was 1.46 µM (active).
